Test results from patent US20150065709A1, “Aminoquinazoline Derivative And Use Thereof In Preparing Anti-Malignant Tumor Medicament” (METABOMICS, INC, priority 2012, published 2015).
Where two headings read alike, the source gives them in different places.

Tests used:
[1] = Pharmacokinetic experiments in CD-1 mice; format: in vivo; conditions: male, mouse, plasma; for half-life: read-out: Terminal t1/2 (converted)
Procedure: Experiment animals: CD-1 mice, male, 6-7 weeks of age; body weight: 20-25 g; Preparation of samples: the test compounds respectively were formulated to 0.2 mg/mL (for intravenous administration) and 1.0 mg/mL (for oral administration) for use. Administration routes: oral administration/intravenous administration. Amount and frequency of administration: 5 mL/kg for single administration.
Sample collection: blood was collected at the time points of 5 min, 15 min, 30 min, 1 h, 2 h, 4 h, 8 h and 24 h, about […] whole blood was collected from 3 animals at each time point. All of the animals were euthanized after the experiments.
Sample analysis: the collected samples were detected by LC-MS/MS, and the instrument model is SHIMADZU20A-API4000.
Pharmacokinetic data analysis: the obtained plasma concentration data were fitted and calculated using WinNolin according to non-compartment model.

[2] = test system: H292; experiment: Inhibition of tumor cells, WST method; format: cell-based; conditions: Homo sapiens, NCI-H292, 48 hours
Procedure: (§1) (1) Compounds: in vitro studies the test compounds was dissolved in 100% DMSO and diluted until the final concentration of DMSO was 0.1%. The 0.1% (v/v) DMSO was added into culture medium as solvent control. 9 concentration gradients were tested and each gradient was repeated twice. (2) Tumor cell lines: the tumor cell lines were cultivated in RPMI10 culture medium containing 10% fetal calf serum in incubator at 37° C. in a 5% CO2 air incubator. The tested tumor cell lines were: BT474, MDA-MB-231, SK-Br-3, A431, H292, H1975, HCC827, A549, H1650 and H1734. (3) MTS method: cells were seeded into 96-well plate to give a density of about 3000 cells per well, and incubated overnight in a humidified incubator at 37° C. In the next day, the test compounds were added to the wells and further incubated for 72 hours. The cell activity was detected using MTS. IC50 was calculated (the concentration of a compound that is required for 50% inhibition of the cell growth versus the DMSO control group, using nonlinear regression analysis of software GraphPad Prism). […] In a 96-well plate, each test compound was tested at 9 dosage concentrations and each dosage was made in triplicate. Samples were added in 100 μL/well. Cell control and negative control wells contained diluents instead of compounds. Except the negative control well, 100 μL cell suspension of complete medium was added into each test well, wherein corresponding cell numbers were included to assure that the cells in cell control well just cover the bottom of the well as the required incubation time was reached. The plate was incubated in a CO2 incubator at 37° C. for 48 hours. The liquid in test wells was removed by pipetting. 100 μL CCK-8 (Cell counting Kit-8, purchased from DOJINDO Molecular Technologies) detection liquid (containing 10% CCK-8, 5% FBS corresponding medium) was added into each test well, then the plate was incubated in a CO2 incubator under at 37° C. for 3 hours. OD value was detected by ELIASA at A450 nm. Cell viability percentage (%)=(O.D. test compound-O.D. blank)/(O.D. control-O.D. blank)×100. Mean value was calculated for each 3 repeated wells, and IC50 was calculated using nonlinear regression (fitted curve) data analysis method.
(§2) Parts of test results of compound Ie listed in the table 3 and all of the test results listed in the table 4 were obtained by WST method.

[3] = test system: MDA-MB-468; experiment: Inhibition of tumor cells, WST method; format: cell-based; conditions: Homo sapiens, Breast
Procedure: as §1, §2

[4] = test system: BT474; experiment: Inhibition of tumor cells, WST method; format: cell-based; conditions: Homo sapiens, BT-474, 48 hours
Procedure: as §1, §2

[5] = test system: A549; experiment: Inhibition of tumor cells, WST method; format: cell-based; conditions: Homo sapiens, 48 hours
Procedure: as §1, §2

[6] = test system: NUGC-3; experiment: Inhibition of tumor cells, WST method; format: cell-based; conditions: Homo sapiens, Stomach
Procedure: as §1, §2

[7] = test system: A431; experiment: Inhibition of tumor cells, WST method; format: cell-based; conditions: Homo sapiens, A-431, 48 hours
Procedure: as §1, §2

[8] = test system: DU145; experiment: Inhibition of tumor cells, WST method; format: cell-based; conditions: Homo sapiens, DU-145, Prostate
Procedure: as §1, §2

[9] = test system: NCI-H2126; experiment: Inhibition of tumor cells, WST method; format: cell-based; conditions: Homo sapiens, Lung
Procedure: as §1, §2

[10] = test system: ZR-75-30; experiment: Inhibition of tumor cells, WST method; format: cell-based; conditions: Homo sapiens, Breast
Procedure: as §1, §2

[11] = test system: CW-2; experiment: Inhibition of tumor cells, WST method; format: cell-based; conditions: Homo sapiens, Colon
Procedure: as §1, §2

[12] = test system: H1975; experiment: Inhibition of tumor cells, WST method; format: cell-based; conditions: Homo sapiens, NCI-H1975, 48 hours
Procedure: as §1, §2

[13] = test system: Calu-3; experiment: Inhibition of tumor cells, WST method; format: cell-based; conditions: Homo sapiens, Lung
Procedure: as §1, §2

[14] = test system: CAL27; experiment: Inhibition of tumor cells, WST method; format: cell-based; conditions: Homo sapiens, CAL-27, Head and Neck
Procedure: as §1, §2

[15] = test system: H1650; experiment: Inhibition of tumor cells, WST method; format: cell-based; conditions: Homo sapiens, NCI-H1650, 48 hours
Procedure: as §1, §2

[16] = test system: FaDu; experiment: Inhibition of tumor cells, WST method; format: cell-based; conditions: Homo sapiens, Head and Neck
Procedure: as §1, §2

[17] = test system: NCI-N87; experiment: Inhibition of tumor cells, WST method; format: cell-based; conditions: Homo sapiens, Stomach
Procedure: as §1, §2

[18] = test system: NCI-H358; experiment: Inhibition of tumor cells, WST method; format: cell-based; conditions: Homo sapiens, Lung
Procedure: as §1, §2

[19] = test system: SK-Br-3; experiment: Inhibition of tumor cells, WST method; format: cell-based; conditions: Homo sapiens, 48 hours
Procedure: as §1, §2

[20] = test system: ACHN; experiment: Inhibition of tumor cells, WST method; format: cell-based; conditions: Homo sapiens, Kidney
Procedure: as §1, §2

[21] = test system: C-33A; experiment: Inhibition of tumor cells, WST method; format: cell-based; conditions: Homo sapiens, Uterine Neck
Procedure: as §1, §2

## CN(C)C/C=C/C(=O)Nc1cc2c(Nc3ccc(F)c(Cl)c3)ncnc2cc1OC(F)F [Compound Ie]
[1]; 1 mg/kg Intravenous Injection
  AUC(0-inf): 167 ng·h/mL
  AUC(0-t): 137 ng·h/mL
  MRT inf: 2.88 h
  clearance: 115 mL/min/kg
  half-life: 2.31 h
[1]; 1 mg/kg Intravenous Injection, read-out: Vss
  Vd: 18.9 L/kg
[1]; 5 mg/kg Oral Administration
  AUC(0-inf): 1600 ng·h/mL
  AUC(0-t): 1150 ng·h/mL
  Cmax: 92.3 ng/mL
  Tmax: 4.33 h
  half-life: 7.11 h
[2]
  IC50: 0.181 µM
[3]
  IC50: 0.076 µM
[4]
  IC50: 0.088 µM
[5]
  IC50: 0.204 µM
[6]
  IC50: 0.055 µM
[7]
  IC50: 1.24 µM
[8]
  IC50: 0.853 µM
[9]
  IC50: 1.69 µM
[10]
  IC50: 0.683 µM
[11]
  IC50: 0.036 µM
[12]
  IC50: 0.198 µM
[13]
  IC50: 0.022 µM
[14]
  IC50: 0.002 µM
[15]
  IC50: 0.702 µM
[16]
  IC50: 0.169 µM
[17]
  IC50: 0.001 µM
[18]
  IC50: 0.195 µM
[19]
  IC50: 0.028 µM
[20]
  IC50: 0.107 µM
[21]
  IC50: 0.057 µM
